From patent US20230365625A1, “METHODS FOR TREATING AND/OR PREVENTING UNDESIRABLE SEQULAE OF NASAL TURBINOPLASTY OR FUNCTIONAL ENDOSCOPIC SINUS SURGERY” (3-D Matrix, Ltd., priority 2022, published 2023)
“And” between values parts separate entries of the source, which are not always exact repeats. Equal entries are not always repeated. “Also recorded” adds a separate entry of the source.

How the values were obtained:
[1] = tested on: punch hole injuries to the liver; details: pig, in vivo; cited from earlier work
[2] = tested on: nasal mucosal injuries on the middle turbinate and opposing nasal septum; assay: Endoscopic grading of synechiae/adhesion formation at day 14 and day 42, sheep model; format: in vivo, Merino sheep; set-up: key to Adhesion score day 14 / Adhesion score day 42: 0: No intranasal adhesions/synechiae; 1: Intranasal adhesion extends less than 25% to septum; Intranasal adhesion extends 25-50% to septum; 3: Intranasal adhesion extends more than 50% to septum; 4: Completely formed adhesion/synechiae extending to septum; details: for Number of sites, synechiae Grade 0 / Number of sites, synechiae Grade 1 / Number of sites, synechiae Grade 2 / Number of sites, synechiae Grade 3 / Number of sites, synechiae Grade 4: 20 sites per group
Protocol: Post-operative observations—Post recovery from anesthesia, the animals were returned to their pens with ongoing daily monitoring for 14 days, including bloody nasal discharge, temperature, and food and water intake. On each postoperative day, the animals were examined externally by an independent observer, with no involvement in the operation, for the presence of bloody nasal discharges. External blood was cleaned off after each examination followed with irrigation of each nostril using 20 ml of saline solution. Regular irrigation of the nose and sinuses is standard in post-operative care following nasal surgery. The sheep were sedated and examined via endoscope again on day 14 for the presence of adhesions and graded by an independent observer using the grading scheme below for sheep nasal adhesions. Representative endoscopic images for sites (two sites/sides per sheep) treated with PuraSinus (SEQ ID NO:1) are shown in FIG. 1 and untreated control sites are shown in FIG. 2, respectively. The sheep were euthanized at day 42, with a necropsy performed by the same independent observer grading intranasal adhesion formation and extension. […] [table]

[3] = pH of the supplied solution; format: physicochemical; details: 2.5% weight/volume solution in water
Excerpt: Details of the Sheep Study—Endoscopic nasal surgery targeting the turbinates and sinuses has become a cornerstone in managing chronic rhinosinusitis. A sheep model was chosen to test treatment of an endoscopic surgical wound deep in the sinuses with PuraSinus (RADA16-I; (SEQ ID NO:1) 2.5% in water) compared to controls as a model for […] in humans both due to the size of the animals and the suitability of the sheep model for comparison with this kind of surgery in humans as described below. PuraSinus (ARTG: 267486; (SEQ ID NO:1)) was supplied by 3-D Matrix Europe SAS as a 2.5% weight/volume solution of synthetic SAPs in water having a pH of about 2.3. Upon contact with physiologic tissue and/or liquid like blood, the pH and/or ionic strength of PuraSinus (SEQ ID NO:1) increases, triggering the self-assembly of the peptides into nanofibers, forming a beta-sheet network similar to an extracellular matrix. At a macroscopic level, the viscous solution forms a hydrogel that seals the opened vessels resulting in hemostasis. PuraSinus (SEQ ID NO:1) is biocompatible and free from infectious agents and is resorbed over time although some residue may remain for ≥30 days. It is supplied sterile in a syringe and delivered through a nozzle supplied by the manufacturer. It is stored at 2-8° C. […]

[4] = RADA16 2.5%, IEIK13 1.3%, QLEL12 0.15% in water; result in words; cited from earlier work
[5] = tested on: gastrointestinal endoscopic procedures and cardiovascular surgery; details: 2.5% w/v in water, topical hemostat; cited from earlier work
[6] = tested on: mucosa at the operated middle turbinate sites; assay: Histopathology of the surgical site at 6 weeks (H&E, 6 markers of wound healing), sheep model; format: in vivo, Merino sheep
Protocol: Termination—At day 42, the animals were euthanized with standard terminal procedures through an intravenous injection of sodium pentobarbital. Post-termination, the mucosa at the operated middle turbinate sites were excised and prepared via hematoxylin and eosin staining by a veterinary histopathologist using 6 different markers of wound healing as shown in Table 3. [table] Histopathology observations—Vertical incisions through the roof and floor of the nasal cavity were performed during necropsy after endoscopic evaluation. This allowed both lateral nasal walls to be opened outwards from the septum whereby the operated mucosa adjacent to the vomer could be easily identified and excised atraumatically. Specimens were preserved in 10% neutral buffered formalin and transported for hematoxylin and eosin staining and slide preparation. Example specimens are shown in FIGS. 4A and 4B for PuraSinus treated tissue and FIGS. 5A and 5B for FLOSEAL treated tissue. Individual sample observations are presented in Appendix 3.

[7] = individual site, 6 weeks, scale 0-3, listed as P
[8] = individual site, 6 weeks, scale −1-1, listed as P

CC(=O)N[C@@H](CCCNC(=N)N)C(=O)N[C@@H](C)C(=O)N[C@@H](CC(=O)O)C(=O)N[C@@H](C)C(=O)N[C@@H](CCCNC(=N)N)C(=O)N[C@@H](C)C(=O)N[C@@H](CC(=O)O)C(=O)N[C@@H](C)C(=O)N[C@@H](CCCNC(=N)N)C(=O)N[C@@H](C)C(=O)N[C@@H](CC(=O)O)C(=O)N[C@@H](C)C(=O)N[C@@H](CCCNC(=N)N)C(=O)N[C@@H](C)C(=O)N[C@@H](CC(=O)O)C(=O)N[C@@H](C)C(N)=O [PuraSinus, Ac-RADARADARADARADA-NH2]
Inflammatory cell infiltration due to the gel in the wound [1]: absence if inflammatory cell infiltration
Reduction of two-week synechiae score versus Controls ([2]; 2 weeks): 91%
Reduction of two-week synechiae score versus Gelatin-thrombin treatment ([2]; 2 weeks): 92%
Reduction of six-week synechiae score ([2]; 6 weeks): 100%
Sites in which synechiae occurred ([2]; at 2 weeks): 20%
Sites in which synechiae occurred ([2]; at 6 weeks): 0%
Adhesion score day 42 ([2]; individual site, grade 0-4): 0
Adhesion score day 14 ([2]; individual site, grade 0-4, listed as P): 0 (16×) and 1 (Intranasal adhesion extends less than 25% to septum) (3×) and 2 (Intranasal adhesion extends 25-50% to septum)
Two-week synechiae score ([2]; maximum 4 points, mean±SD): 0.3±0.6 points
Synechiae formation compared to FLOSEAL and untreated control ([2]; sheep, result in words): lowest observed synechiae formation; also recorded: more effective in inhibiting the formation of synechiae; also recorded: statistically significant lower incidence of adhesions; also recorded: significantly reduced synechiae formation
Number of sites, synechiae Grade 0 ([2]; six weeks post-surgery): 20
Number of sites, synechiae Grade 1 ([2]; six weeks post-surgery): 0
Number of sites, synechiae Grade 2 ([2]; six weeks post-surgery): 0
Number of sites, synechiae Grade 3 ([2]; six weeks post-surgery): 0
Number of sites, synechiae Grade 4 ([2]; six weeks post-surgery): 0
Number of sites, synechiae Grade 0 ([2]; two weeks post-surgery): 16
Number of sites, synechiae Grade 1 ([2]; two weeks post-surgery): 3
Number of sites, synechiae Grade 2 ([2]; two weeks post-surgery): 1
Number of sites, synechiae Grade 3 ([2]; two weeks post-surgery): 0
Number of sites, synechiae Grade 4 ([2]; two weeks post-surgery): 0
pH [3]: about 2.3
Effect of gamma-irradiation sterilization [4]: enhanced the rheological properties
Successful hemostasis rates [5]: 72.6-100%
Angiogenesis (A): number of sites Grade 0 ([6]; 6 weeks): 9
Angiogenesis (A): number of sites Grade 1 ([6]; 6 weeks): 6
Angiogenesis (A): number of sites Grade 2 ([6]; 6 weeks): 4
Angiogenesis (A): number of sites Grade 3 ([6]; 6 weeks): 1
Epithelial erosion (EE): number of sites Grade 0 ([6]; 6 weeks): 5
Epithelial erosion (EE): number of sites Grade 1 ([6]; 6 weeks): 8
Epithelial erosion (EE): number of sites Grade 2 ([6]; 6 weeks): 6
Epithelial erosion (EE): number of sites Grade 3 ([6]; 6 weeks): 1
Goblet cells (GC): number of sites Grade 0 ([6]; 6 weeks): 6
Goblet cells (GC): number of sites Grade +1 ([6]; 6 weeks): 6
Goblet cells (GC): number of sites Grade −1 ([6]; 6 weeks): 8
Inflammatory infiltrate (II): number of sites Grade 0 ([6]; 6 weeks): 3
Inflammatory infiltrate (II): number of sites Grade 1 ([6]; 6 weeks): 13
Inflammatory infiltrate (II): number of sites Grade 2 ([6]; 6 weeks): 4
Inflammatory infiltrate (II): number of sites Grade 3 ([6]; 6 weeks): 0
Sero-mucous glands (SMC): number of sites Grade 0 ([6]; 6 weeks): 14
Sero-mucous glands (SMC): number of sites Grade +1 ([6]; 6 weeks): 0
Sero-mucous glands (SMC): number of sites Grade −1 ([6]; 6 weeks): 6
Submucosal fibrosis (SF): number of sites Grade 0 ([6]; 6 weeks): 4
Submucosal fibrosis (SF): number of sites Grade 1 ([6]; 6 weeks): 12
Submucosal fibrosis (SF): number of sites Grade 2 ([6]; 6 weeks): 3
Submucosal fibrosis (SF): number of sites Grade 3 ([6]; 6 weeks): 1
Mucosal regeneration / wound healing on histopathology ([6]; 6 weeks, result in words): favorable outcomes for wound healing enhancement across all 6 metrics; also recorded: enhancement to mucosal regeneration; also recorded: more commonly associated with enhanced mucosal regeneration; also recorded: improved outcome
Angiogenesis (A): Mean score ([6]; 6 weeks, scale 0-3): 0.85
Epithelial erosion (EE): Mean score ([6]; 6 weeks, scale 0-3): 1.15
Inflammatory infiltrate (II): Mean score ([6]; 6 weeks, scale 0-3): 1.05
Submucosal fibrosis (SF): Mean score ([6]; 6 weeks, scale 0-3): 1.05
Goblet cells (GC): Mean score ([6]; 6 weeks, scale −1-1): −0.1
Sero-mucous glands (SMC): Mean score ([6]; 6 weeks, scale −1-1): −0.3
A (angiogenesis) grade [6, 7]: 1 (6×) and 3 and 0 (9×) and 2 (4×)
EE (epithelial erosion) grade [6, 7]: 1 (8×) and 2 (6×) and 0 (5×) and 3
II (inflammatory infiltrate) grade [6, 7]: 2 (4×) and 1 (13×) and 0 (3×)
SF (submucosal fibrosis) grade [6, 7]: 1 (12×) and 2 (3×) and 0 (4×) and 3
GC (goblet cells) grade [6, 8]: −1 (8×) and 1 (6×) and 0 (6×)
SMC (sero-mucous glands) grade [6, 8]: −1 (6×) and 0 (14×)
6-week histopathology scores ([6]; result in words, driven by reduced submucosal fibrosis and angiogenesis): significantly lower
